Consider 25 molecules from ChEMBL document CHEMBL1909046, “DrugMatrix in vitro pharmacology data”.

The target in series [1] is Beta-1 adrenergic receptor (Homo sapiens, UniProt P08588). The series can be described thus: DRUGMATRIX: Adrenergic beta1 radioligand binding (ligand: [125I] Cyanopindolol). In kind it is cell membranes, CHO-K1, Membrane. The conditions noted are these: Not Active = under 50% inhibition at 10 µM.
The nature of series [2]: DRUGMATRIX: Tumor Necrosis Factor (TNF), Non-Selective radioligand binding (ligand: [125I] TNF-alpha). In kind it is cell membranes, Membrane. The conditions noted are these: u-937; Not Active = under 50% inhibition at 10 µM.
A further series has as its target T1, D(4) dopamine receptor (Homo sapiens, UniProt P21917).
T1 sequence (P21917 whole entry): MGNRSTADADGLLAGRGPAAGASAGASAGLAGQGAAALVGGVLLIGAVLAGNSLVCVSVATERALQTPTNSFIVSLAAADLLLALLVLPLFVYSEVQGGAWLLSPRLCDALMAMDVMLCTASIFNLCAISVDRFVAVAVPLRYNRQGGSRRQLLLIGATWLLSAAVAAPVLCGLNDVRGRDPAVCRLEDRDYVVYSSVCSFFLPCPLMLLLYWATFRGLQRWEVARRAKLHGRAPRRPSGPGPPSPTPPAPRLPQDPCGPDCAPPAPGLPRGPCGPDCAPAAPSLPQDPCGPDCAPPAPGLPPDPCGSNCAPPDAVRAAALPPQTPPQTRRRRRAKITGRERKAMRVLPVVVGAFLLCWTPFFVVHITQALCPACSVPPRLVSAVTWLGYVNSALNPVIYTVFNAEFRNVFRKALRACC
The series can be described thus: DRUGMATRIX: Dopamine D4.2 radioligand binding (ligand: [3H] Spiperone). In kind it is cell membranes, CHO-K1, Membrane. The note with it: cho-k1; Not Active = under 50% inhibition at 10 µM.

Series [3] concerns the target Tyrosine-protein kinase Fyn (Homo sapiens, UniProt P06241). The series can be described thus: biochemical. In kind it is cell-based, Insect cells.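 Note: enzymatic inhibition of Fyn kinase activity measured with Poly(Glu:Tyr) as the phosphorylation substrate; in other assays of this panel Not Active means under 50% inhibition at 10 µM.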
A further series addresses Cytochrome P450 2D6 (Homo sapiens, UniProt P10635). The note with it: bti-tn-5b1-4.

Chain of Tyrosine-protein kinase Fyn (P06241 whole entry): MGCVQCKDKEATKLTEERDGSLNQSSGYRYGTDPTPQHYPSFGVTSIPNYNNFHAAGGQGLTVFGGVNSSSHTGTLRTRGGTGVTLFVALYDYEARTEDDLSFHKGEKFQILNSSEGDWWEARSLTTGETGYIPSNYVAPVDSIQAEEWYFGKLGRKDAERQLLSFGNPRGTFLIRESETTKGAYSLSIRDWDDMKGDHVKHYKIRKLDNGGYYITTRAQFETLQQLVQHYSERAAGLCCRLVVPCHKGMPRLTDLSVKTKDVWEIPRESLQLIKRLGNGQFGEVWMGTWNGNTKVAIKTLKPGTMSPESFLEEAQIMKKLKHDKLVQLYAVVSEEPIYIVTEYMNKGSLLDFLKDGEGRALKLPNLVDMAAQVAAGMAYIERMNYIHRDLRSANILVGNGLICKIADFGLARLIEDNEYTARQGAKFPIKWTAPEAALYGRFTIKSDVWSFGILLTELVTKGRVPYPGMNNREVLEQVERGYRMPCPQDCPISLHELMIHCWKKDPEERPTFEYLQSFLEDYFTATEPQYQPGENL
Chain of Beta-1 adrenergic receptor (P08588 whole entry): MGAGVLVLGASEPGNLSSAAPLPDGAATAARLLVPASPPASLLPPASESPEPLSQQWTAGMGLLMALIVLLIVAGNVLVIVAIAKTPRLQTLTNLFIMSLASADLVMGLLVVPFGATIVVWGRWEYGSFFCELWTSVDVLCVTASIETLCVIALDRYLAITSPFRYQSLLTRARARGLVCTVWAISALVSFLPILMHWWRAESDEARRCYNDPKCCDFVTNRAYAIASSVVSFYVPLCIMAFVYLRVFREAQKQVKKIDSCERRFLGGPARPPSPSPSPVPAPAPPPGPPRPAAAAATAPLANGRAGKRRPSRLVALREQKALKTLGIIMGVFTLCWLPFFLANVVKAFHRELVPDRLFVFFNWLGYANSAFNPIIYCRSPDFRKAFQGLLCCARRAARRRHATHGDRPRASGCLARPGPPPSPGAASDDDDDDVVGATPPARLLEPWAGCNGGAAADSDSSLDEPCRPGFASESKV
Chain of Cytochrome P450 2D6 (P10635 whole entry): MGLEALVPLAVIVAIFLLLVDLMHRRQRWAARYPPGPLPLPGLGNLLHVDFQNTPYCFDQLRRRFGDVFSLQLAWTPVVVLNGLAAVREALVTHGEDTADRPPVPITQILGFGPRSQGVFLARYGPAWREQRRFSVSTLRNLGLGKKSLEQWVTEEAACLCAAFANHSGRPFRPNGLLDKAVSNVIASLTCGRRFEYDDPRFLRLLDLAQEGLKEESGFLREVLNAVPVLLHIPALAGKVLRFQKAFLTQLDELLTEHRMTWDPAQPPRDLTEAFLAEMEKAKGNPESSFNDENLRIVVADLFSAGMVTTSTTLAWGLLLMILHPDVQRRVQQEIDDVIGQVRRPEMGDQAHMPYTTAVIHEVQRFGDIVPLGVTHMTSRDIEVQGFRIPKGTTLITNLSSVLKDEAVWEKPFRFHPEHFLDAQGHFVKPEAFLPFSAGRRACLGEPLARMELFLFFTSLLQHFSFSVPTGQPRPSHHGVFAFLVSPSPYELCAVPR

Consider `N[C@@H](Cc1ccc(F)cc1)C(=O)O`, for which the half-inhibitory concentration (IC50) entry (in series [1] (cho-k1); in series [2]; at D(4) dopamine receptor; in series [3] (insect cells)) was “Not Active” throughout. Besides, in series [2], the Ki entry is “Not Active”.

For `CCOC(=O)[C@H](CCc1ccccc1)N[C@@H](C)C(=O)N1Cc2ccccc2C[C@H]1C(=O)O`, the IC50 result (in series [1] (cho-k1); in series [2]; at D(4) dopamine receptor; in series [3] (insect cells); on Cytochrome P450 2D6) was “Not Active” in each case. Besides, the Ki entry (in series [2]; on Cytochrome P450 2D6) was “Not Active” in each case.

As for `CCOC(=O)[C@H](CCc1ccccc1)N[C@@H](C)C(=O)N1CCC[C@H]1C(=O)O`, the IC50 entry (in series [1] (cho-k1); in series [2]; on D(4) dopamine receptor; in series [3] (insect cells); on Cytochrome P450 2D6) was “Not Active” throughout. Besides, the Ki entry (in series [2]; on Cytochrome P450 2D6) was “Not Active” each time.

As for `C=C1/C(=C\C=C2/CCC[C@]3(C)[C@@H]([C@H](C)CCCC(C)C)CC[C@@H]23)C[C@@H](O)C[C@@H]1O` [ALFACALCIDOL], the IC50 entry (in series [1] (cho-k1); in series [2]; on D(4) dopamine receptor; in series [3] (insect cells); on Cytochrome P450 2D6) was “Not Active” throughout. Moreover, the inhibition constant Ki result (in series [2]; on Cytochrome P450 2D6) was “Not Active” in each case.

For `CO[C@H]1[C@@H](O)[C@H](N)[C@@H](O[C@H]2O[C@H]([C@H](C)N)CC[C@H]2N)[C@H](O)[C@@H]1N(C)C(=O)CN` [ASTROMICIN], the IC50 entry (in series [1] (cho-k1); in series [2]; on D(4) dopamine receptor; in series [3] (insect cells); against Cytochrome P450 2D6) was “Not Active” each time. For the same molecule, the Ki entry (in series [2]; on Cytochrome P450 2D6) was “Not Active” throughout.

With `[N-]=[N+]=CC(=O)OC[C@H](N)C(=O)O` [AZASERINE], the IC50 entry (in series [1] (cho-k1); in series [2]; at D(4) dopamine receptor; in series [3] (insect cells); against Cytochrome P450 2D6) was “Not Active” throughout. In addition, the Ki entry (in series [2]; at Cytochrome P450 2D6) was “Not Active” throughout.

Regarding `CC[C@H]1OC(=O)[C@H](C)[C@@H](O[C@H]2C[C@@](C)(OC)[C@@H](O)[C@H](C)O2)[C@H](C)[C@@H](O[C@@H]2O[C@H](C)C[C@H](N(C)C)[C@H]2O)[C@](C)(O)C[C@@H](C)CN(C)[C@H](C)[C@@H](O)[C@]1(C)O` [AZITHROMYCIN], the IC50 result (in series [1] (cho-k1); in series [2]; on D(4) dopamine receptor; in series [3] (insect cells); against Cytochrome P450 2D6) was “Not Active” each time. Also, the Ki entry (in series [2]; at Cytochrome P450 2D6) was “Not Active” in each case.

For the molecule `CC(C)C[C@H]1C(=O)N2CCC[C@H]2[C@]2(O)O[C@](NC(=O)[C@@H]3C=C4c5cccc6[nH]c(Br)c(c56)C[C@H]4N(C)C3)(C(C)C)C(=O)N12` [BROMOCRIPTINE], the IC50 is 2400 nM in series [1] (read-out: IC50); “Not Active” in series [2]; “Not Active” at D(4) dopamine receptor; “Not Active” in series [3] (insect cells); “Not Active” against Cytochrome P450 2D6. For the same molecule, the Ki in series [1] (read-out: Ki) is 1390 nM; in series [2] it was “Not Active”; at Cytochrome P450 2D6, “Not Active”.

Take `CS(=O)(=O)OCCCCOS(C)(=O)=O` [BUSULFAN]: the IC50 entry (in series [1] (cho-k1); in series [2]; on D(4) dopamine receptor; in series [3] (insect cells); at Cytochrome P450 2D6) was “Not Active” each time. The Ki result (in series [2]; on Cytochrome P450 2D6) was “Not Active” in each case.

With `COc1cc(CNC(=O)CCCC/C=C/C(C)C)ccc1O` [CAPSAICIN], the IC50 result (in series [1] (cho-k1); in series [2]; on D(4) dopamine receptor; in series [3] (insect cells); at Cytochrome P450 2D6) was “Not Active” throughout. Besides, the Ki entry (in series [2]; on Cytochrome P450 2D6) was “Not Active” each time.

As for `NC(=O)N1c2ccccc2C=Cc2ccccc21` [CARBAMAZEPINE], the half-maximal inhibitory concentration (IC50) result (in series [1] (cho-k1); in series [2]; at D(4) dopamine receptor; in series [3] (insect cells); at Cytochrome P450 2D6) was “Not Active” throughout. For the same molecule, the Ki result (in series [2]; on Cytochrome P450 2D6) was “Not Active” each time.

On to `CCOC(=O)n1ccn(C)c1=S` [CARBIMAZOLE], for which the IC50 entry (in series [1] (cho-k1); in series [2]; on D(4) dopamine receptor; in series [3] (insect cells); against Cytochrome P450 2D6) was “Not Active” each time. Also, the Ki result (in series [2]; on Cytochrome P450 2D6) was “Not Active” in each case.

Turning to `Oc1ccccc1O` [CATECHOL], the IC50 result in series [1] (cho-k1) is “Not Active”; in series [2], “Not Active”; at D(4) dopamine receptor, “Not Active”; in series [3] (read-out: IC50) it was 17400 nM; against Cytochrome P450 2D6, “Not Active”. In addition, the Ki entry (in series [2]; at Cytochrome P450 2D6) was “Not Active” throughout.

Regarding `CO[C@@]1(NC(=O)CSCC#N)C(=O)N2C(C(=O)O)=C(CSc3nnnn3C)CS[C@@H]21` [CEFMETAZOLE], the IC50 result (in series [1] (cho-k1); in series [2]; on D(4) dopamine receptor; in series [3] (insect cells); at Cytochrome P450 2D6) was “Not Active” each time. In addition, the Ki entry (in series [2]; at Cytochrome P450 2D6) was “Not Active” each time.

On to `CN(C(=O)CCCOc1ccc2[nH]c(=O)ccc2c1)C1CCCCC1` [CILOSTAMIDE], for which the IC50 result (in series [1] (cho-k1); in series [2]; on D(4) dopamine receptor; in series [3] (insect cells); against Cytochrome P450 2D6) was “Not Active” in each case. In addition, the Ki result (in series [2]; on Cytochrome P450 2D6) was “Not Active” throughout.

For the molecule `Nc1nc(Cl)nc2c1ncn2[C@H]1C[C@H](O)[C@@H](CO)O1` [CLADRIBINE], the IC50 entry (in series [1] (cho-k1); in series [2]; at D(4) dopamine receptor; in series [3] (insect cells); at Cytochrome P450 2D6) was “Not Active” throughout. The Ki result (in series [2]; at Cytochrome P450 2D6) was “Not Active” in each case.

`CC[C@H]1OC(=O)[C@H](C)[C@@H](O[C@H]2C[C@@](C)(OC)[C@@H](O)[C@H](C)O2)[C@H](C)[C@@H](O[C@@H]2O[C@H](C)C[C@H](N(C)C)[C@H]2O)[C@](C)(OC)C[C@@H](C)C(=O)[C@H](C)[C@@H](O)[C@]1(C)O` [CLARITHROMYCIN]: the IC50 result (in series [1] (cho-k1); in series [2]; at D(4) dopamine receptor; in series [3] (insect cells); against Cytochrome P450 2D6) was “Not Active” in each case. The inhibition constant Ki entry (in series [2]; at Cytochrome P450 2D6) was “Not Active” throughout.

`CCC[C@@H]1C[C@@H](C(=O)N[C@@H]([C@H]2O[C@H](SC)[C@H](O)[C@@H](O)[C@H]2O)[C@H](C)Cl)N(C)C1` [CLINDAMYCIN]: the IC50 result (in series [1] (cho-k1); in series [2]; at D(4) dopamine receptor; in series [3] (insect cells)) was “Not Active” throughout. In series [2], the Ki entry is “Not Active”.

For the molecule `O=C(O)c1cc(=O)c2c(OCC(O)COc3cccc4oc(C(=O)O)cc(=O)c34)cccc2o1` [CROMOLYN], the IC50 result (in series [1] (cho-k1); in series [2]; at D(4) dopamine receptor; in series [3] (insect cells); on Cytochrome P450 2D6) was “Not Active” throughout. The Ki result (in series [2]; at Cytochrome P450 2D6) was “Not Active” throughout.

`CN1C(=O)CN=C(c2ccccc2)c2cc(Cl)ccc21` [DIAZEPAM]: the IC50 result (in series [1] (cho-k1); in series [2]; at D(4) dopamine receptor; in series [3] (insect cells)) was “Not Active” each time. For the same molecule, the Ki result in series [2] is recorded as “Not Active”.

With `CCOC(=O)C1=C(C)NC(C)=C(C(=O)OC)C1c1cccc(Cl)c1Cl` (stereo unspecified) [FELODIPINE], the IC50 entry (in series [1] (cho-k1); in series [2]; at D(4) dopamine receptor; in series [3] (insect cells)) was “Not Active” in each case. The Ki result in series [2] is “Not Active”.

Consider `Cc1cnc(C(=O)NCCc2ccc(S(=O)(=O)NC(=O)NC3CCCCC3)cc2)cn1` [GLIPIZIDE], for which the IC50 entry (in series [1] (cho-k1); in series [2]; at D(4) dopamine receptor; in series [3] (insect cells)) was “Not Active” each time. Also, the Ki result in series [2] was “Not Active”.

Take `C/C=C\c1ccc(O)c(OC)c1` [ISOEUGENOL]: the IC50 entry (in series [1] (cho-k1); in series [2]; on D(4) dopamine receptor; in series [3] (insect cells)) was “Not Active” in each case. The Ki result in series [2] is “Not Active”.

`NC[C@H]1O[C@H](O[C@H]2[C@H](O)[C@@H](O[C@H]3O[C@H](CO)[C@@H](O)[C@H](N)[C@H]3O)[C@H](N)C[C@@H]2N)[C@H](O)[C@@H](O)[C@@H]1O` [KANAMYCIN]: the IC50 result (in series [2]; on D(4) dopamine receptor; in series [3] (insect cells); at Cytochrome P450 2D6) was “Not Active” in each case. Further, the inhibition constant (Ki) entry (in series [2]; at Cytochrome P450 2D6) was “Not Active” each time.

Regarding `OCCN1CCN(CCCN2c3ccccc3Sc3ccc(Cl)cc32)CC1` [PERPHENAZINE], the IC50 entry (in series [1] (cho-k1); in series [2]; at D(4) dopamine receptor; in series [3] (insect cells)) was “Not Active” in each case. For the same molecule, the Ki entry in series [2] was “Not Active”.
